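Results reflect a 48-hour exposure of cells in 96-well plates to compound at five concentrations. At the TGI there is no net growth.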
How the values were obtained:
Assay in all cases: growth of human tumour cells (NCI), 48 h
NCI-H23 lung = tested on: NCI-H23 lung
SR leukemia = tested on: SR leukemia
UO-31 renal = tested on: UO-31 renal
NCI-H522 lung = tested on: NCI-H522 lung
HCC-2998 colon = tested on: HCC-2998 colon
OVCAR-8 ovarian = tested on: OVCAR-8 ovarian
RPMI-8226 leukemia = tested on: RPMI-8226 leukemia
KM12 colon = tested on: KM12 colon
SNB-75 CNS = tested on: SNB-75 CNS
TK-10 renal = tested on: TK-10 renal
U251 CNS = tested on: U251 CNS
NCI-H460 lung = tested on: NCI-H460 lung
SK-MEL-28 melanoma = tested on: SK-MEL-28 melanoma
M19-MEL melanoma = tested on: M19-MEL melanoma
SK-MEL-5 melanoma = tested on: SK-MEL-5 melanoma
UACC-62 melanoma = tested on: UACC-62 melanoma
HOP-62 NSCLC = tested on: HOP-62 NSCLC
SW-620 colon = tested on: SW-620 colon
SF-539 CNS = tested on: SF-539 CNS
MALME-3M melanoma = tested on: MALME-3M melanoma
SK-OV-3 ovarian = tested on: SK-OV-3 ovarian
OVCAR-3 ovarian = tested on: OVCAR-3 ovarian
UACC-257 melanoma = tested on: UACC-257 melanoma
NCI-H226 lung = tested on: NCI-H226 lung
SF-268 CNS = tested on: SF-268 CNS
HT29 colon = tested on: HT29 colon
A549 NSCLC = tested on: A549 NSCLC
K-562 leukemia = tested on: K-562 leukemia
MOLT-4 leukemia = tested on: MOLT-4 leukemia
SK-MEL-2 melanoma = tested on: SK-MEL-2 melanoma
HL-60(TB) leukemia = tested on: HL-60(TB) leukemia
COLO 205 colon = tested on: COLO 205 colon
DLD-1 colon = tested on: DLD-1 colon
HCT-116 colon = tested on: HCT-116 colon
CCRF-CEM leukemia = tested on: CCRF-CEM leukemia
SF-295 CNS = tested on: SF-295 CNS
OVCAR-5 ovarian = tested on: OVCAR-5 ovarian
IGROV1 ovarian = tested on: IGROV1 ovarian
HOP-18 NSCLC = tested on: HOP-18 NSCLC
LXFL 529 NSCLC = tested on: LXFL 529 NSCLC
HOP-92 NSCLC = tested on: HOP-92 NSCLC
SNB-19 CNS = tested on: SNB-19 CNS
ACHN renal = tested on: ACHN renal
SNB-78 CNS = tested on: SNB-78 CNS
LOX IMVI melanoma = tested on: LOX IMVI melanoma
XF 498 CNS = tested on: XF 498 CNS
786-0 renal = tested on: 786-0 renal
DMS 273 small cell lung = tested on: DMS 273 small cell lung
DMS 114 small cell lung = tested on: DMS 114 small cell lung
HCT-15 colon = tested on: HCT-15 colon
OVCAR-4 ovarian = tested on: OVCAR-4 ovarian
A498 renal = tested on: A498 renal
EKVX NSCLC = tested on: EKVX NSCLC
CAKI-1 renal = tested on: CAKI-1 renal
M14 melanoma = tested on: M14 melanoma
SN12C renal = tested on: SN12C renal

Compound CC(=O)Nc1ccc(C(=O)NN2C(=O)C(Cl)C2/C=C/c2ccccc2)cc1 (configuration not stated) has a TGI (NCI-H23 lung) of over 100 µM, a TGI (SR leukemia) of over 100 µM and a TGI (UO-31 renal) of over 100 µM. For the same compound, the TGI (NCI-H522 lung) was over 100 µM, the TGI (HCC-2998 colon) was over 100 µM and the TGI (OVCAR-8 ovarian) was over 100 µM. The TGI (RPMI-8226 leukemia) was over 100 µM, the TGI (KM12 colon) was over 100 µM and the TGI (SNB-75 CNS) was over 100 µM. It also gave a TGI (TK-10 renal) of over 100 µM, a TGI (U251 CNS) of over 100 µM and a TGI (NCI-H460 lung) of over 100 µM. The TGI (SK-MEL-28 melanoma) was over 100 µM, the TGI (M19-MEL melanoma) was over 100 µM and the TGI (SK-MEL-5 melanoma) was over 100 µM. The TGI (UACC-62 melanoma) was over 100 µM, the TGI (HOP-62 NSCLC) was over 100 µM and the TGI (SW-620 colon) was over 100 µM. The TGI (SF-539 CNS) was over 100 µM, the TGI (MALME-3M melanoma) was over 100 µM and the TGI (SK-OV-3 ovarian) was over 100 µM. It also gave a TGI (OVCAR-3 ovarian) of over 100 µM, a TGI (UACC-257 melanoma) of over 100 µM and a TGI (NCI-H226 lung) of over 100 µM. The TGI (SF-268 CNS) was over 100 µM, the TGI (HT29 colon) was over 100 µM and the TGI (A549 NSCLC) was over 100 µM. It also gave a TGI (K-562 leukemia) of over 100 µM, a TGI (MOLT-4 leukemia) of over 100 µM and a TGI (SK-MEL-2 melanoma) of over 100 µM. For the same compound, the TGI (HL-60(TB) leukemia) was over 100 µM, the TGI (COLO 205 colon) was over 100 µM and the TGI (DLD-1 colon) was over 100 µM. The TGI (HCT-116 colon) was over 100 µM, the TGI (CCRF-CEM leukemia) was over 100 µM and the TGI (SF-295 CNS) was over 100 µM. The TGI (OVCAR-5 ovarian) was over 100 µM, the TGI (IGROV1 ovarian) was over 100 µM and the TGI (HOP-18 NSCLC) was over 100 µM. It also gave a TGI (LXFL 529 NSCLC) of over 100 µM, a TGI (HOP-92 NSCLC) of over 100 µM and a TGI (SNB-19 CNS) of over 100 µM. The TGI (ACHN renal) was over 100 µM.
Nc1c(-c2ccc(-c3c(N)[n+]([O-])c4ccccc4[n+]3[O-])cc2)[n+]([O-])c2ccccc2[n+]1[O-] showed a TGI (SNB-78 CNS) of 62.3 µM, a TGI (NCI-H23 lung) of 21.1 µM and a TGI (LOX IMVI melanoma) of 25.6 µM. It also gave a TGI (UO-31 renal) of 32.6 µM, a TGI (NCI-H522 lung) of 3.65 µM and a TGI (HCC-2998 colon) of 29.6 µM. The TGI (OVCAR-8 ovarian) was over 100 µM, the TGI (XF 498 CNS) was 23.9 µM and the TGI (786-0 renal) was 26.9 µM. The TGI (RPMI-8226 leukemia) was over 100 µM, the TGI (KM12 colon) was 23.6 µM and the TGI (SNB-75 CNS) was 21.9 µM. It also gave a TGI (TK-10 renal) of 32.1 µM, a TGI (U251 CNS) of 39.6 µM and a TGI (DMS 273 small cell lung) of 31.7 µM. It also gave a TGI (NCI-H460 lung) of 37.3 µM, a TGI (SK-MEL-28 melanoma) of 20.9 µM and a TGI (M19-MEL melanoma) of 36.2 µM. For the same compound, the TGI (SK-MEL-5 melanoma) was 23.6 µM, the TGI (UACC-62 melanoma) was 24.3 µM and the TGI (HOP-62 NSCLC) was 32.3 µM. For the same compound, the TGI (SW-620 colon) was 21.6 µM, the TGI (DMS 114 small cell lung) was 16.3 µM and the TGI (HCT-15 colon) was 15.4 µM. The TGI (SF-539 CNS) was 18.2 µM, the TGI (OVCAR-4 ovarian) was 35.9 µM and the TGI (MALME-3M melanoma) was 8.57 µM. It also gave a TGI (SK-OV-3 ovarian) of 52.7 µM, a TGI (A498 renal) of 35.5 µM and a TGI (OVCAR-3 ovarian) of 29.8 µM. It also gave a TGI (UACC-257 melanoma) of 13.8 µM, a TGI (NCI-H226 lung) of 45 µM and a TGI (SF-268 CNS) of 66.2 µM. It also gave a TGI (HT29 colon) of 27.1 µM, a TGI (A549 NSCLC) of 51.9 µM and a TGI (K-562 leukemia) of over 100 µM. For the same compound, the TGI (MOLT-4 leukemia) was over 100 µM, the TGI (SK-MEL-2 melanoma) was 28.9 µM and the TGI (EKVX NSCLC) was 79.9 µM. For the same compound, the TGI (HL-60(TB) leukemia) was over 100 µM, the TGI (COLO 205 colon) was 29.6 µM and the TGI (DLD-1 colon) was 27.2 µM. It also gave a TGI (CCRF-CEM leukemia) of over 100 µM, a TGI (SF-295 CNS) of 36.7 µM and a TGI (OVCAR-5 ovarian) of 35.2 µM. For the same compound, the TGI (IGROV1 ovarian) was 47.5 µM, the TGI (HOP-18 NSCLC) was 20.2 µM and the TGI (LXFL 529 NSCLC) was 35.4 µM. It also gave a TGI (HOP-92 NSCLC) of over 100 µM, a TGI (CAKI-1 renal) of 20.3 µM and a TGI (SNB-19 CNS) of 29 µM. The TGI (M14 melanoma) was 35.1 µM, the TGI (ACHN renal) was 31.1 µM and the TGI (SN12C renal) was 34.4 µM.
